Experimental data published in PMC8881610 (Nature Communications, 2022).
Residue numbers refer to the chain shown, from its start.

Legend:
Assay in all cases: cAMP accumulation assay (LANCE Ultra cAMP kit), GIPR WT, mutant or modified constructs
Format in all cases: cell-based
Parameters in all cases: acylated tirzepatide to the full-length or modified; Flag; expressed in transfected cells; host or cells: HEK293T
[1] = molecular target: T1, GIPR (Homo sapiens, UniProt P48546, E135A); conditions: GIPR E135A, HEK293T
T1 sequence (P48546 22-466 E135A): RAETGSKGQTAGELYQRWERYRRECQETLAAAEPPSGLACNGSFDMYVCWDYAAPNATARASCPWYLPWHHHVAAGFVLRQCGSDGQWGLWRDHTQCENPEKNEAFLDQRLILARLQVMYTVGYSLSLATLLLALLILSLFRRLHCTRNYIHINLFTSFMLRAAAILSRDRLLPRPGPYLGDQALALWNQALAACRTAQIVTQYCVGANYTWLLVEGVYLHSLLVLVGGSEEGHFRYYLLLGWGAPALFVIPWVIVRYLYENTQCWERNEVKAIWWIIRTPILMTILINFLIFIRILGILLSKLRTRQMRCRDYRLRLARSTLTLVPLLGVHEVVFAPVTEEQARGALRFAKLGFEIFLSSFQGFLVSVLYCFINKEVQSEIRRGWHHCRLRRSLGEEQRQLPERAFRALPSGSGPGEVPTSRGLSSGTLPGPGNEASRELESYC
How it was run: (§1)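 HEK293T cells transiently transfected with human GIPR WT or mutant constructs (pcDNA3.1), used after 24 h. The cells were stimulated with peptide agonists for 40 min at RT in HBSS with 5 mM HEPES, 0.1% BSA or casein, and 0.5 mM IBMX. cAMP was read by LANCE Ultra TR-FRET (Eu-cAMP tracer/ULight anti-cAMP, 1 h RT, 620/650 nm).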

[2] = molecular target: T2, GIPR (Homo sapiens, UniProt P48546, D191A/Q138A/R196A); conditions: GIPR Q138A/D191A/R196A, HEK293T
T2 sequence (P48546 22-466 Q138A/D191A/R196A): T1 sequence (P48546 22-466 E135A) with A114E, Q117A, D170A, R175A
How it was run: as §1

[3] = molecular target: T3, GIPR (Homo sapiens, UniProt P48546, R370A); conditions: HEK-293T, GIPR R370A; HEK293T
T3 sequence (P48546 22-466 R370A): T1 sequence (P48546 22-466 E135A) with A114E, R349A
How it was run: as §1

[4] = read-out: cAMP pEC50 (converted)

CCCCCCCCCCCCCCCC(=O)N[C@@H](CCC(=O)NCCCC[C@H](NC(=O)[C@H](CC(=O)O)NC(=O)[C@H](CO)NC(=O)[C@@H](NC(=O)[C@H](Cc1ccccc1)NC(=O)[C@@H](NC(=O)CNC(=O)[C@H](CCC(N)=O)NC(=O)C(C)(C)NC(=O)[C@@H](N)Cc1c[nH]cn1)[C@@H](C)O)[C@@H](C)O)C(=O)N[C@@H](CO)C(=O)N[C@@H](CCCCN)C(=O)N[C@@H](Cc1ccc(O)cc1)C(=O)N[C@@H](CC(C)C)C(=O)N[C@@H](CC(=O)O)C(=O)N[C@@H](CCC(=O)O)C(=O)N[C@@H](CCCNC(=N)N)C(=O)N[C@@H](C)C(=O)N[C@@H](C)C(=O)N[C@@H](CCC(N)=O)C(=O)N[C@@H](CC(=O)O)C(=O)N[C@@H](Cc1ccccc1)C(=O)N[C@H](C(=O)N[C@@H](CCC(N)=O)C(=O)N[C@@H](Cc1c[nH]c2ccccc12)C(=O)N[C@@H](CC(C)C)C(=O)N[C@@H](CC(C)C)C(=O)N[C@@H](CC(=O)O)C(=O)NCC(=O)NCC(=O)N1CCC[C@H]1C(=O)N[C@@H](CO)C(=O)N[C@@H](CO)C(=O)NCC(=O)N[C@@H](C)C(=O)N1CCC[C@H]1C(=O)N1CCC[C@H]1C(=O)N1CCC[C@H]1C(=O)N[C@@H](CO)C(N)=O)C(C)C)C(=O)O [Peptide 20]
EC50 [1, 4]: 0.0427 nM | Emax ([1]; HEK-293T): 100 ± 1.44% | EC50 [2, 4]: 30.2 nM | Emax ([2]; HEK-293T): 56.3 ± 12.2% | Emax [3]: 71.5 ± 2.85%
